Test results from paper PMC11921146, “Heterologous production of corosolic acid, a phyto-insulin, in agroinfiltrated Nicotiana benthamiana leaves” (Plant Biotechnology, 2024).

How the values were obtained:
Test in all cases: transient co-expression in N. benthamiana leaves, GC-MS of leaf extracts
Format in all cases: cell-based
Conditions in all cases: alpha-amyrin formed in situ by BfOSC3; co-expressed AtHMGR1cd-S577A and LjCPR2; C-28 oxidation
[1] = molecular target: T1, MtCYP716A12 (Medicago truncatula, UniProt Q2MJ20)
T1 construct: gene CYP716A12; full-length; transient expression in N. benthamiana leaves (pBYR2HS)

[2] = molecular target: T2, MtCYP716A12 (Medicago truncatula, UniProt Q2MJ20, D122Q/Q358P)
T2 construct: gene CYP716A12; full-length; transient expression in N. benthamiana leaves (pBYR2HS)

[3] = molecular target: T3, MtCYP716A12 (Medicago truncatula, UniProt Q2MJ20, D122Q)
T3 construct: gene CYP716A12; full-length; transient expression in N. benthamiana leaves (pBYR2HS)

[4] = molecular target: T4, OeCYP716A48 (Olea europaea, UniProt A0A090AQE0)
T4 construct: gene CYP716A48; full-length; transient expression in N. benthamiana leaves (pBYR2HS)
T4 sequence (A0A090AQE0 entry or part of it): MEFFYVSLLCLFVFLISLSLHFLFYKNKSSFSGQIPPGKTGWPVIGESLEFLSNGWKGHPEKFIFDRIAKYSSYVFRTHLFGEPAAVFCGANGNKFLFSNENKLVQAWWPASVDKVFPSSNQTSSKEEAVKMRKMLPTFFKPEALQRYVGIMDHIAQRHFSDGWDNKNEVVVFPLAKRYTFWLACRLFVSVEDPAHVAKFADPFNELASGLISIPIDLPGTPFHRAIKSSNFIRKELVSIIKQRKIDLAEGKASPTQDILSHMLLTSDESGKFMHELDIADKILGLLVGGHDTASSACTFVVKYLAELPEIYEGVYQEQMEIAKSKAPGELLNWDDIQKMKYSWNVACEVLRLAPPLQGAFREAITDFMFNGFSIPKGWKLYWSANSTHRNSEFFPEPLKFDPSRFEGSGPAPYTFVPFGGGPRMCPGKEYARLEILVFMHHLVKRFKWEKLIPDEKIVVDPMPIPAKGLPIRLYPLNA

T2 sequence (Q2MJ20 whole entry D122Q/Q358P, the tested form may be a part): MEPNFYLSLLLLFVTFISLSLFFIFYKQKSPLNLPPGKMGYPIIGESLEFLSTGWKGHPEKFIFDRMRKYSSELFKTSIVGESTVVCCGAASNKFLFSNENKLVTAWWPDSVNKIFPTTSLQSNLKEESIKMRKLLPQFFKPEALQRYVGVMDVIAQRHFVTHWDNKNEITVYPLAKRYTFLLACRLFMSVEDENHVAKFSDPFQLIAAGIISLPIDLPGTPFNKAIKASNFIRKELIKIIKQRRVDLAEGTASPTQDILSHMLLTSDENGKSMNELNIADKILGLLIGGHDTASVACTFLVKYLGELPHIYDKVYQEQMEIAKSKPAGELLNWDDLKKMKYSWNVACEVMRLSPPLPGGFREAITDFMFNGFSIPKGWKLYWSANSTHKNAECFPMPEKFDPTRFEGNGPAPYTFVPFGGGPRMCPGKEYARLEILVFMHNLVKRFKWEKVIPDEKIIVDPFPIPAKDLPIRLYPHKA
T3 sequence (Q2MJ20 whole entry D122Q, the tested form may be a part): as the sequence (Q2MJ20 whole entry D122Q/Q358P, the tested form may be a part) above, with P358Q counted along it
T1 sequence (Q2MJ20 whole entry, the tested form may be a part): as the sequence (Q2MJ20 whole entry D122Q/Q358P, the tested form may be a part) above, with Q122D, P358Q counted along it

C[C@H]1[C@H](C)CC[C@]2(C)CC[C@]3(C)C(=CC[C@@H]4[C@@]5(C)CC[C@H](O)C(C)(C)[C@@H]5CC[C@]43C)[C@H]12 [compound 1, α-amyrin]
transient co-expression in N. benthamiana leaves, GC-MS of leaf extracts [1]: detected in the leaves expressing wild-type MtCYP716A12 | transient co-expression in N. benthamiana leaves, GC-MS of leaf extracts [2]: each of the candidate CYP716As were mixed and infiltrated into N. benthamiana leaves | transient co-expression in N. benthamiana leaves, GC-MS of leaf extracts [3]: each of the candidate CYP716As were mixed and infiltrated into N. benthamiana leaves | transient co-expression in N. benthamiana leaves, GC-MS of leaf extracts [4]: each of the candidate CYP716As were mixed and infiltrated into N. benthamiana leaves
